Laboratory results from PMC6143625, “A high throughput screen for next-generation leads targeting malaria parasite transmission” (Nature Communications, 2018).

Legend:
[1] = test system: P. falciparum stage V female gametocytes (female gamete formation); experiment: P. falciparum dual gamete formation assay (Pf DGFA), female readout (Pfs25 expression), 48 h carry-over format; type: cell-based, Plasmodium falciparum NF54; settings: primary screen, 2 uM, 48 h incubation, single replicate
Description: (§1) P. falciparum NF54 strain (originally isolated from an imported malaria case in the Netherlands in the 1980s; BEI Resources, cat. no. MRA-1000) asexual and sexual stages culture was performed as previously described. Gametocyte cultures were initiated at 1% asexual ring stage parasitaemia and 4% haematocrit in 40 ml final volume. To induce gametocyte production, complete culture medium (CM) (RPMI 1640 supplemented with 25 mM HEPES, 50 µg ml^−1 hypoxanthine, 2 g l^−1 NaHCO3 and 10% pooled human male type A+ serum) was replaced daily for 14 days without fresh erythrocyte addition. Human serum was obtained from Interstate Blood Bank, A^+ serotype; no aspirin 2 h before drawing and no antimalarials 2 weeks before drawing. On day 14 after culture induction, gametocyte production was assessed by thin smear and Giemsa staining, and exflagellation accurately counted in a haemocytometer. Gametocyte cultures with >0.2% exflagellation (compared to total erythrocyte cell number) were deemed acceptable for use in the Pf DGFA. Note, all human biological samples were sourced ethically and their research use was in accord with the terms of the informed consents under an IRB/EC approved protocol.
In screening mode, the assay was performed as described in Delves et al.[35] with a mean Z′ factor of 0.56 ± 0.14 (SD) (male) and 0.71 ± 0.17 (SD) (female). Pooled mature gametocyte cultures with the capacity to yield >0.2% exflagellation (of total cells) were diluted in CM to 14 million cells per ml and so that 700,000 cells were dispensed in 50 µl into each well of the warmed 384-well screening plates. […] 92%N2/5% CO2/3% O2 gas mix before gamete formation was triggered by addition of 10 µl per well ookinete medium (RPMI 1640 supplemented with 25 mM HEPES, 50 µg ml^−1 hypoxanthine, 2 g l^−1 NaHCO3, 100 µM xanthurenic acid) containing 0.5 µg ml^−1 anti-Pfs25 clone 4B7 (BEI Resources, cat. no. MRA-315) conjugated to the fluorophore Cy3 (GE Healthcare), and also by cooling the plate at 4 °C for 4 min and then a further 5 min at 28 °C. Exflagellation was recorded immediately by brightfield microscopy using a Nikon Ti-E widefield microscope at ×4 objective, ×1.5 zoom, recording a 10-frame video time-lapse over 2 s for each well. Afterwards, plates were incubated in the dark at 28 °C for a further 24 h to allow female gametes to maximally express Pfs25 on their surface. Female gamete formation was recorded by single-image fluorescence microscopy using the same microscope and magnification as above. Exflagellation and female gamete formation were quantified by specific algorithms designed with the open-source ICY Image Analysis software.
(§2) Assay performance statistics, such as signal to background ratio, Z′ and robust 3×SD activity cut-off were calculated using templates in ActivityBase XE (IDBS, Guilford, Surrey, UK). Hit population analysis and visualisation were conducted using Spotfire DecisionSite (Spotfire, Inc., Somerville, Massachusetts). The pIC50 (−log IC50) values were obtained using the ActivityBase XE nonlinear regression function in the full curve analysis bundle. In screening mode, the Pf DGFA achieved a mean Z′ factor of 0.56 ± 0.14 (SD) (male) and 0.71 ± 0.17 (SD) (female).

[2] = test system: P. falciparum stage V male gametocytes (male gamete formation); experiment: P. falciparum dual gamete formation assay (Pf DGFA), male readout (exflagellation), 48 h carry-over format; type: cell-based, Plasmodium falciparum NF54; settings: for %Inhibition Male @2uM: primary screen, 48 h incubation, single replicate; for Male IC50 / IC50: SAR, Fig. 6 and Fig. 7; for IC50: Plasmodium falciparum, read-out: Male IC50; for Selectivity: parasite selectivity compared to Tox50 in HepG2 cells
Description: as §1
In screening mode, the assay was performed as described in Delves et al.[35] with a mean Z′ factor of 0.56 ± 0.14 (SD) (male) and 0.71 ± 0.17 (SD) (female). Pooled mature gametocyte cultures with the capacity to yield >0.2% exflagellation (of total cells) were diluted in CM to 14 million cells per ml and so that 700,000 cells were dispensed in 50 µl into each well of the warmed 384-well screening plates. Parasites were incubated in the plates with compounds for 48 h in a humidified chamber under 92%N2/5% CO2/3% O2 gas mix before gamete formation was triggered by addition of 10 µl per well ookinete medium (RPMI 1640 supplemented with 25 mM HEPES, 50 µg ml^−1 hypoxanthine, 2 g l^−1 NaHCO3, 100 µM xanthurenic acid) containing 0.5 µg ml^−1 anti-Pfs25 clone 4B7 (BEI Resources, cat. no. MRA-315) conjugated to the fluorophore Cy3 (GE Healthcare), and also by cooling the plate at 4 °C for 4 min and then a further 5 min at 28 °C. Exflagellation was recorded immediately by brightfield microscopy using a Nikon Ti-E widefield microscope at ×4 objective, ×1.5 zoom, recording a 10-frame video time-lapse over 2 s for each well. Afterwards, plates were incubated in the dark at 28 °C for a further 24 h to allow female gametes to maximally express Pfs25 on their surface. Female gamete formation was recorded by single-image fluorescence microscopy using the same microscope and magnification as above. Exflagellation and female gamete formation were quantified by specific algorithms designed with the open-source ICY Image Analysis software.
as §2

Row | SMILES | %Inhibition Female @2uM [1] [%] | %Inhibition Male @2uM [2] [%] | Male IC50 [2] | IC50 [2] [µM] | Selectivity [2]
1 | Cc1ccc(-c2noc(C(C)NS(C)(=O)=O)n2)cc1 (stereo not shown) [DDD01025633] | <30 | 37.79 | – | – | –
2 | Cc1ccc(C(=O)N2CC[C@@]3(O)CCCC[C@H]3C2)cc1 [DDD01026498] | 36.05 | <30 | – | – | –
3 | Cn1c(CN2CCCCCC2)cc(=O)c(O)c1CN1CCCC1 [DDD01027184] | <30 | 31.50 | – | – | –
4 | NC(=O)Cn1c(CO)cnc1SCc1ccccc1Cl [DDD01027486] | 30.58 | <30 | – | – | –
5 | O=C(Nc1ncnc2c1CCC2)c1cccc(F)c1 [DDD01027506] | 33.11 | <30 | – | – | –
6 | COCCc1nnc(NC(=O)CSCc2ccccc2)o1 [DDD01027773] | <30 | 33.86 | – | – | –
7 | O=S(=O)(c1ccccc1Br)N1CCC2(CC1)OCCS2 [DDD01027971] | 31.22 | <30 | – | – | –
8 | C1CCN(c2nc(N3CCOCC3)nc3n[nH]nc23)CC1 [DDD01027997] | 37.52 | <30 | – | – | –
9 | Cc1cccc(CS(=O)(=O)NCc2nn(C)c3c2COCC3)c1 [DDD01028624] | 40.92 | <30 | – | – | –
10 | CNC(=O)[C@@H]1COC[C@H]2CN(C(=O)c3ccc(OC)cc3)C[C@H]21 [DDD01030727] | 30.90 | <30 | – | – | –
11 | Cc1cnc(N2CCC[C@@H]3CN(CC(=O)N(C)C)C[C@@H]32)nc1 [DDD01031282] | 34.01 | <30 | – | – | –
12 | O=C(Cc1ccsc1)N1C[C@@H]2OCCN(c3cnccn3)[C@@H]2C1 [DDD01031297] | 38.82 | <30 | – | – | –
13 | CCn1ncc2c1C(COC)N(C(=O)c1ccc3c(c1)OCO3)CC2 (stereo not shown) [DDD01031312] | 34.92 | <30 | – | – | –
14 | COCCN1CCO[C@@H]2CN(C(=O)NCc3cccnc3)CC[C@@H]2C1 [DDD01031413] | 31.80 | <30 | – | – | –
15 | c1cc(CNCC2Cn3nncc3CO2)co1 (stereo not shown) [DDD01031485] | 38.17 | <30 | – | – | –
16 | Cc1ccc(CN2CCCC3(CCN(Cc4ccoc4)CC3)C2)cc1 [DDD01031609] | 33.18 | <30 | – | – | –
17 | Cc1ccc(N2CC[C@@H]3[C@@H]2CCN3C(=O)c2cscn2)nn1 [DDD01031738] | 32.44 | <30 | – | – | –
18 | CN1CCN(C(=O)c2cc3c(s2)CCN3C(=O)C2CC2)CC1 [DDD01031830] | 50.73 | <30 | – | – | –
19 | CO[C@H]1CC[C@H]2[C@H]1OCCN2Cc1ccc(F)c(F)c1 [DDD01032445] | <30 | 37.39 | – | – | –
20 | O=C(O)c1nnn(-c2cc(F)cc(F)c2)c1-c1ccncc1 [DDD01034739] | 37.18 | <30 | – | – | –
21 | CC(=O)Nc1ccc(Br)cc1 [compound 7683] | – | – | Inactive | – | –
22 | O=C(CCl)Nc1ccccc1 [compound 11485] | – | – | – | 2.41 | 21
23 | Cc1ccc(NC(=O)CCl)cc1 [compound 27967] | – | – | – | 3.39 | 15

Row | SMILES | %Inhibition Female @2uM [1] [%] | %Inhibition Male @2uM [2] [%] | Male IC50 [2] | IC50 [2] [µM] | Selectivity [2]
24 | COc1cccc(NC(=O)CCl)c1 [compound 28667] | – | – | – | 2.21 | 14
25 | COc1ccc(NC(=O)CCl)cc1 [compound 31123] | – | – | – | 2.66 | 24
26 | CN(C(=O)CCl)c1ccccc1 [compound 75797] | – | – | – | 6.41 | 2
27 | Cc1ccccc1NC(=O)CCl [compound 101479] | – | – | – | 10.4 | 10
28 | O=C(CCl)N1CCc2ccccc21 [compound 176897] | – | – | – | 1.63 | 8
29 | O=C(CCl)Nc1ccccc1Cl [compound 222444] | – | – | – | 11.2 | 7
30 | O=C(CCl)Nc1ccc(Cl)cc1Cl [compound 225998] | – | – | – | 4.03 | 21
31 | O=C(CCl)Nc1ccc(O)cc1 [compound 236323] | – | – | – | 1.95 | > 51
32 | Cc1cc(Cl)ccc1NC(=O)CCl [compound 249708] | – | – | – | 5.84 | > 17
33 | Cc1cccc(NC(=O)CCl)c1 [compound 296325] | – | – | – | 4.5 | 18
34 | O=C(CCl)Nc1ccccc1O [compound 350567] | – | – | Inactive | – | –
35 | O=C(Nc1ccc(Br)cc1)C(Cl)Cl [compound 532122] | – | – | Inactive | – | –
36 | O=C1C(Cl)=C(Cl)C(=O)N1c1ccc(Br)cc1 [compound 779209] | – | – | Inactive | – | –
37 | N#Cc1ccccc1NC(=O)CCl [compound 819001] | – | – | – | 5.25 | > 19
38 | NCC(=O)Nc1ccc(Br)cc1 [compound 871334] | – | – | Inactive | – | –
39 | O=C(CCl)Nc1ccccc1F [compound 1522874] | – | – | – | 3.26 | > 31
40 | Cc1cc(Br)ccc1NC(=O)CCl [compound 2097895] | – | – | – | 4.77 | 4
41 | O=C(Nc1ccc(Br)cc1Cl)C(Cl)(Cl)Cl [compound 2725563] | – | – | Inactive | – | –
42 | CC(C)c1cc(Br)ccc1NC(=O)CCl [compound 4066920] | – | – | – | 12.1 | 2
43 | Cc1cc(Br)ccc1NC(=O)CCCCl [compound 19226390] | – | – | Inactive | – | –
44 | O=C(CCl)Nc1ccc(CO)cc1 [compound 22457525] | – | – | – | 2.08 | > 48
45 | COC(=O)Nc1ccc(NC(=O)CCl)cc1 [compound 43701226] | – | – | Inactive | – | –
